Data reported in PubChem BioAssay AID2305 (GlaxoSmithKline (GSK), 2010).
pIC50: −log10 of the molar value.

Test system: P. falciparum 3D7 growth, pLDH absorbance
Assay: P. falciparum 3D7 growth inhibition, dose response, strain 3D7 (AID 2305)

SMILES	pIC50
O=C(NCc1ccccn1)C(c1cc2ccccc2o1)N1CCN(C(c2ccccc2)c2ccccc2)CC1 (configuration not stated)	6.07
CCCCN1CCN(c2cc(NS(=O)(=O)c3ccc(C(=O)Nc4ccc(C(F)(F)F)cc4)cc3)ccc2OC)CC1	6.18
COc1c(C=NNc2nc(Nc3ccccc3)nc(Nc3ccccc3)n2)ccc(Br)c1O	6.14
COc1cc(NC(=O)/C=C/c2ccccc2OC(F)(F)F)cc(OCCN2CCCCC2)c1	6.72
S=C(NN=Cc1ccccn1)Nc1ccc2c(c1)OCCO2	5.98
CC(=O)Nc1ncc(C(=O)Nc2cccc(-c3ccc(-c4nc5ccc(F)cc5[nH]4)cc3)c2)s1	6.21
CCCCc1cc(N2CCC(NC(C)=O)C2)nc(Nc2ccc(C)cc2)n1 (configuration not stated)	6.06
O=C(Nc1ccc(C(=O)N2CCN(CCN3CCN(c4cccc(C(F)(F)F)c4)CC3)CC2)cc1)c1ccc(OC(F)(F)F)cc1	6.16
CCOC(=O)NCCSC(C)(C)[C@H](NC(=O)[C@H](Cc1cc2ccccc2s1)[C@H](CC)N(O)C=O)C(=O)Nc1nccs1	6.52
Cc1ccccc1CN1CCCN(Cc2ccc(C(=O)Nc3ccc(Cl)cc3)cc2)CC1	6.03
CCCCCc1cc(O)c2c3c(c(=O)oc2c1)CN(C)CC3	6.92
CC[C@H]1CN2CC[C@H]1C[C@H]2[C@H](O)c1cc(-c2cccc(Cl)c2)nc2ccc(OC)cc12	6.77
O=C([C@H]1C[C@@H]1c1ccccc1)N(Cc1ccc(-c2ccc(CNCCc3ccccc3)cc2)cc1)C1CCNCC1	5.95
CCCc1ccc(Cc2cnc3nc(N)nc(N)c3c2C)cc1	6.55
CC(C)NCc1ccc(-c2cccc(NC(=O)c3ccc(Cl)cc3)c2)cc1	6.54
CCc1sc(N2CCN(C)CC2)nc1C(=O)NCCc1ccc(Cl)c(Cl)c1	5.93
O=C(Nc1ccc(Cl)cc1)c1cccc2[nH]c(C(F)(F)F)nc12	6.12
CC(NC(=O)c1ccc(O)c(-c2ccc(Cl)c(Cl)c2)c1)C(=O)NC1CCCCC1 (configuration not stated)	6.08
Cc1cc(N2CCOCC2)nc2ccc(NC(=O)c3ccc(Cl)c([N+](=O)[O-])c3)cc12	5.99

SMILES	pIC50
O=S(=O)(Nc1cccc(CCN2CCC(N3CCCCC3)CC2)c1)c1ccc(Cl)cc1	6.04
OCCN1CCN(Cc2ccc(-c3cccc(-c4nc5ccc(F)cc5[nH]4)c3)cc2)CC1	6.21
CC(C)(C)OC(=O)Cn1cnc2cc(NC(=O)c3cc([N+](=O)[O-])cc([N+](=O)[O-])c3)ccc21	6.51
Fc1cccc(Nc2nc(NCc3ccc(Cl)c(Cl)c3)nc(Nc3cccc(F)c3)n2)c1	6.12
Cc1c(S(=O)(=O)Nc2ccc3nccc(N4CCN[C@H](C)C4)c3c2)sc2ccc(Cl)cc12	6.08
N#Cc1ccc2c(c1)CCN(CCC1CCC(NC(=O)/C=C/c3ccc4ccccc4c3)CC1)CC2 (configuration not stated)	6.14
CC[C@H]1CN(C/C=C/c2ccc(OC)cc2)CC[C@H]1CCCc1ccnc2ccc(O)cc12	6.18
COc1cccc(CN2CCCN(Cc3cccc(NC(=O)c4ccc(Cl)c(Cl)c4)c3)CC2)c1	5.84
Cc1noc(-c2ccc(NC[C@@H](C)NC[C@H](O)c3cccc(Cl)c3)cc2)n1	6.12
CC(C)c1cccc(OCC2CCN(c3ccc(C(=O)Nc4ccccc4)cn3)CC2)c1	6.15
O=C(CCc1cnc[nH]1)Nc1cccc(-c2ccc(-c3nc4ccccc4[nH]3)s2)c1	6.12
CC(C)(C)c1ccc(CNC(=O)c2ccc(CNC3CCC(N)CC3)s2)cc1 (configuration not stated)	6.28
O=C(/C=C/c1cc(C(F)(F)F)ccc1F)N1CCC(CN2CCC(c3c[nH]c4ccccc34)CC2)CC1	6.00
COc1ccc2nccc([C@H](O)CN3CCC(NCc4nc5c(F)cccc5[nH]4)CC3)c2c1	6.15
COc1cc(F)c2ncc(Cl)c(C(O)CN3CCC(NC(=O)c4ccc5c(n4)NC(=O)CO5)CC3)c2c1 (configuration not stated)	6.12
CCOc1ccc(Nc2cc(C)nc(Nc3ccc(OCC)cc3)n2)cc1	6.06
CCN(CC)CCOc1ccc(N(Cc2ccc(C(C)(C)C)cc2)C(=O)c2ccc(Cc3ccccc3)cc2)cc1OC	6.11
CC(=O)c1cccc(NC(=O)c2ccc(Cl)c(S(=O)(=O)N3CCc4ccccc43)c2)c1	5.79
